Test [1] deals with β5 of human 20S constitutive proteasome (CP) (Homo sapiens, UniProt P28074). As to the kind of experiment: Fluorogenic substrate hydrolysis, chymotrypsin-like activity. Format: biochemical.
Test [2] deals with β5i of human 20S immunoproteasome (IP) (Homo sapiens, UniProt P28062). Described as above. It is filed as biochemical.
For test [3], the target named is β5 of mouse 20S constitutive proteasome (CP) (Mus musculus, UniProt O55234). Described as above. It is filed as biochemical.
In test [4] the target is β5i of mouse 20S immunoproteasome (IP) (Mus musculus, UniProt P28063). In words: biochemical.
In test [5] the target is β2 of human 20S constitutive proteasome (CP) (Homo sapiens, UniProt Q99436). In words: Fluorogenic substrate hydrolysis, trypsin-like activity. Format: biochemical.
Test [6] concerns the target β2i of human 20S immunoproteasome (IP) (Homo sapiens, UniProt P40306). The description is as above. It is filed as biochemical.
Test [7] concerns the target β2 of mouse 20S constitutive proteasome (CP) (Mus musculus, UniProt P70195). Format: biochemical. As to conditions: at concentrations up to 1 μM.
The target in test [8] is β2i of mouse 20S immunoproteasome (IP) (Mus musculus, UniProt O35955). In words: biochemical. Format: biochemical.
In test [9] the target is β1i (LMP2) of mouse 20S immunoproteasome (IP) (Mus musculus, UniProt P28076). In words: biochemical.
For test [10], the system named is chymotrypsin-like activity in live LCL721.145 cells (containing immunoproteasome). It is filed as cell-based, human. The following applies: MeO-Suc-GLF-AMC, up to 1 μM.

For orientation: IC50 means the concentration that gives 50% inhibition. Higher therefore signals lower potency. As for `CCCCCCC/C=C/C=C/C(=O)N[C@H](C(=O)N[C@H]1C[C@@H](O)CCNC(=O)/C=C/[C@H](C)NC1=O)[C@@H](C)O` [GlbA, glidobactin A], the IC50 in test [1] amounted to 0.0036 µM; in test [2] it was 0.025 µM; in [3] it was 0.00065 µM; in [4], 0.0011 µM; in test [5], 0.015 µM; in test [6], 0.042 µM. Further, the IC50 is 0.0014 µM in [8] and 0.25 µM in test [9]. In addition, in test [7], the “effect on β2 of the constitutive proteasome” value is recorded as “almost unaffected”. Further, the “selectivity β2/β2i” value in test [8] was above 714. The “inhibition of chymotrypsin-like activity in live cells (cell permeability)” value in [10] is “inactive”.

`CCCCCCC/C=C/C=C/C(=O)N[C@H](C(=O)N[C@H]1CCCCNC(=O)/C=C/[C@H](C)NC1=O)[C@@H](C)O` [LumA, luminmycin A]: the IC50 was found to be 0.039 µM in test [1]; 1.6 µM in test [2]; 0.032 µM in test [3]; 0.0089 µM in test [4]; 0.26 µM in test [5]; 0.17 µM in test [6]. Besides, the “inhibition of chymotrypsin-like activity in live cells (cell permeability)” value in test [10] is “inactive”.
